Measured values taken from the NIST ThermoML archive (doi:10.1021/je900056u).

Legend:
[1] = xn = mol fraction of the nth substance listed; conditions: 101 kPa, Liquid; for speed of sound: Linear variable-path acoustic interferometer; for mass density: Pycnometric method
[2] = 101 kPa, Liquid; for speed of sound: Linear variable-path acoustic interferometer; for mass density: Pycnometric method

CC(=O)CC(C)C [4-methylpentan-2-one] + O=S1(=O)CCCC1
[1], x2 = 0
Conditions | mass density [kg/m3] | speed of sound [m/s]
303.15 K | 791.7 | 1175
308.15 K | 787.7 | 1156
313.15 K | 782.6 | 1138

O=S1(=O)CCCC1 [sulfolane]
[2]
Conditions | mass density [kg/m3] | speed of sound [m/s]
303.15 K | 1261.8 | 1588
308.15 K | 1257 | 1576
313.15 K | 1251.6 | 1558

CCCC(C)=O [pentan-2-one]
[2]
Conditions | mass density [kg/m3] | speed of sound [m/s]
303.15 K | 796.6 | 1192
308.15 K | 792.7 | 1176
313.15 K | 785.5 | 1151

CC(=O)CC(C)C [4-methylpentan-2-one]
[2]
Conditions | mass density [kg/m3] | speed of sound [m/s]
303.15 K | 791.7 | 1175
308.15 K | 787.7 | 1156
313.15 K | 782.6 | 1138

O=S1(=O)CCCC1 [sulfolane] + CCC(C)=O
[1]
Conditions | mass density, 303.15 K [kg/m3] | mass density, 308.15 K [kg/m3] | mass density, 313.15 K [kg/m3] | speed of sound, 303.15 K [m/s] | speed of sound, 308.15 K [m/s] | speed of sound, 313.15 K [m/s]
x1 = 0.0293 | 810.6 | 806.2 | 799.2 | 1191 | 1170 | 1149
x1 = 0.1391 | 869.7 | 865.6 | 858.7 | 1234 | 1215 | 1195
x1 = 0.2575 | 931.6 | 927.5 | 920.9 | 1288 | 1266 | 1247
x1 = 0.3803 | 993.5 | 989.6 | 983.5 | 1341 | 1319 | 1300
x1 = 0.4834 | 1043.1 | 1039.9 | 1034.4 | 1386 | 1366 | 1346
x1 = 0.5854 | 1089.7 | 1086.6 | 1081.8 | 1431 | 1413 | 1395
x1 = 0.7119 | 1145.2 | 1142 | 1137.2 | 1481 | 1465 | 1450
x1 = 0.8428 | 1200.5 | 1196.8 | 1191.8 | 1533 | 1517 | 1502
x1 = 0.9756 | 1252.7 | 1249 | 1243.7 | 1581 | 1568 | 1552
x1 = 1 | 1261.8 | 1257 | 1251.6 | 1588 | 1576 | 1558

CCCC(C)=O [pentan-2-one] + O=S1(=O)CCCC1
[1]
Conditions | mass density, 303.15 K [kg/m3] | mass density, 308.15 K [kg/m3] | mass density, 313.15 K [kg/m3] | speed of sound, 303.15 K [m/s] | speed of sound, 308.15 K [m/s] | speed of sound, 313.15 K [m/s]
x2 = 0 | 796.6 | 792.7 | 785.5 | 1192 | 1176 | 1151
x2 = 0.0261 | 808.2 | 804.2 | 797.8 | 1203 | 1183 | 1161
x2 = 0.162 | 869.2 | 864.6 | 858.8 | 1246 | 1225 | 1203
x2 = 0.2945 | 929.2 | 924.8 | 919.1 | 1290 | 1271 | 1251
x2 = 0.445 | 998.5 | 994.6 | 989.1 | 1352 | 1340 | 1318
x2 = 0.5296 | 1038.2 | 1034.5 | 1029.1 | 1384 | 1373 | 1353
x2 = 0.6319 | 1086.6 | 1082.8 | 1078 | 1429 | 1418 | 1401
x2 = 0.7498 | 1143.2 | 1139.2 | 1134.7 | 1484 | 1469 | 1450
x2 = 0.8677 | 1200.2 | 1195.8 | 1191.6 | 1536 | 1520 | 1503
x2 = 0.9799 | 1253.2 | 1248.5 | 1243.6 | 1580 | 1562 | 1549

CCC(C)=O [butanone]
[2]
Conditions | mass density [kg/m3] | speed of sound [m/s]
303.15 K | 794.6 | 1178
308.15 K | 790.4 | 1158
313.15 K | 783.1 | 1136

O=S1(=O)CCCC1 [sulfolane] + CC(=O)CC(C)C
[1]
Conditions | mass density, 303.15 K [kg/m3] | mass density, 308.15 K [kg/m3] | mass density, 313.15 K [kg/m3] | speed of sound, 303.15 K [m/s] | speed of sound, 308.15 K [m/s] | speed of sound, 313.15 K [m/s]
x1 = 0.0287 | 803.4 | 799.3 | 793.9 | 1185 | 1166 | 1147
x1 = 0.1852 | 866.6 | 862.5 | 856.8 | 1233 | 1215 | 1198
x1 = 0.3272 | 927.3 | 923.3 | 917.6 | 1281 | 1263 | 1247
x1 = 0.4634 | 989.2 | 985.1 | 979.7 | 1335 | 1316 | 1300
x1 = 0.5671 | 1038.9 | 1034.6 | 1029.3 | 1381 | 1361 | 1345
x1 = 0.6671 | 1088.8 | 1083.9 | 1078.5 | 1426 | 1407 | 1391
x1 = 0.7777 | 1145.1 | 1140.7 | 1134.1 | 1479 | 1463 | 1447
x1 = 0.8809 | 1198.5 | 1195.1 | 1187.8 | 1530 | 1513 | 1496
x1 = 0.9829 | 1252.3 | 1249.2 | 1242.3 | 1578 | 1564 | 1550
x1 = 1 | 1261.8 | 1257 | 1251.6 | 1588 | 1576 | 1558

O=S1(=O)CCCC1 [sulfolane] + CCCC(C)=O
[1], x1 = 1
Conditions | mass density [kg/m3] | speed of sound [m/s]
303.15 K | 1261.8 | 1588
308.15 K | 1257 | 1576
313.15 K | 1251.6 | 1558

CCC(=O)CC [pentan-3-one]
[2]
Conditions | mass density [kg/m3] | speed of sound [m/s]
303.15 K | 804.5 | 1197
308.15 K | 799.6 | 1179
313.15 K | 794.3 | 1160

CCC(=O)CC [pentan-3-one] + O=S1(=O)CCCC1
[1]
Conditions | mass density, 303.15 K [kg/m3] | mass density, 308.15 K [kg/m3] | mass density, 313.15 K [kg/m3] | speed of sound, 303.15 K [m/s] | speed of sound, 308.15 K [m/s] | speed of sound, 313.15 K [m/s]
x2 = 0 | 804.5 | 799.6 | 794.3 | 1197 | 1179 | 1160
x2 = 0.0252 | 815.9 | 811.1 | 805.8 | 1208 | 1191 | 1170
x2 = 0.1627 | 878.1 | 873.1 | 867.6 | 1257 | 1240 | 1218
x2 = 0.2922 | 937.4 | 931.9 | 926.6 | 1300 | 1283 | 1263
x2 = 0.4201 | 996.2 | 991.1 | 985.6 | 1345 | 1331 | 1315
x2 = 0.5234 | 1044.1 | 1039.1 | 1033.7 | 1388 | 1376 | 1361
x2 = 0.6292 | 1093.5 | 1088.4 | 1083.1 | 1435 | 1421 | 1406
x2 = 0.7487 | 1149.4 | 1144.2 | 1139.3 | 1490 | 1473 | 1460
x2 = 0.8644 | 1202.8 | 1198.1 | 1193.2 | 1536 | 1520 | 1506
x2 = 0.9804 | 1253.5 | 1250 | 1244.6 | 1579 | 1566 | 1550

O=S1(=O)CCCC1 [sulfolane] + CCC(=O)CC
[1], x1 = 1
Conditions | mass density [kg/m3] | speed of sound [m/s]
303.15 K | 1261.8 | 1588
308.15 K | 1257 | 1576
313.15 K | 1251.6 | 1558

CCC(C)=O [butanone] + O=S1(=O)CCCC1
[1], x2 = 0
Conditions | mass density [kg/m3] | speed of sound [m/s]
303.15 K | 794.6 | 1178
308.15 K | 790.4 | 1158
313.15 K | 783.1 | 1136
